Results: patent US10822376B2, “Biologically active peptides” (Baxalta Incorporated, priority 2008, dated 2020)
≈ marks a conversion by molar mass, not a printed value. *1 amine or outer side, *2 acyl side, *3 side chain or, on linkers, in order; H or OH if unused. Where a SMILES comes first, the peptide text is derived from it. Where no end group is shown, it is not given here. [ ]: non-standard residue; d: D form. The star is where a group is joined. NH(CH2)3(OCH2CH2)2O(CH2)3NH = C(CN[*:1])COCCOCCOCCCN[*:2]; X1 = NC(=O)CCC(=O)NCCCOCCOCCOCCCN*; Suc = O=C(CCC(=O)[*:2])[*:1]

What was measured:
Plasma stability = conditions: human
Description: Half-life of compounds in human or mouse plasma, or percentage of compound remaining after an incubation in human or mouse plasma, is determined as follows. In the experimental procedure, test compound concentrations are 5 μM, prepared from test compound stock solutions of 10 mM in DMSO. Propantheline is used as a standard. […] All of the samples are incubated in a water bath at 37° C. […] After a chosen duration of incubation (generally at t=60 min) each sample is mixed with a further 500 μl acetonitrile. The samples are mixed on a vortex mixer for 30 s and placed on ice for 10 min and collected for centrifugation. Samples are centrifuged at 20 000 g for 10 min at 4° C. 500 μl supernatant is transferred into a new 1.5 ml Eppendorf tube and an equal volume of acetonitrile is added. The sample is mixed again for 30 s using a vortex mixer. After a second centrifugation step (20 000 g, 10 min, 4° C.) 250 μl of the supernatant is transferred into HPLC glass vials for HPLC-MS analysis. Conditions for performing HPLC are as follows: Injection-volume is set to 20 μl. Temperature is set to 25° C. A linear gradient from 95:5 to 5:95 water:acetonitrile both containing 0:05% trifluoroacetic acid (TFA) (v/v) is applied at a flow rate of 0.3 ml/min for 10 min. The PDA-detector is scanning from 210-400 nm.

[1] = tested on: Factor VIII deficient human plasma; test: DDPTGA (reagent B) in FVIII depleted plasma; assay type: biochemical; conditions: compounds at 50 μM and 80, 90 or 100 μM; also: key: '+' means stimulates; '−' means does not stimulate
Source text: (§1) Preferably, Reagent C high is used.

[2] = tested on: human FVIII inhibited plasma; test: Defined Intrinsic Thrombin Generation Assay (DITGA, triggered by FXIa and phospholipids); assay type: biochemical; conditions: for Activity in the Defined Intrinsic Thrombin Generation Assay: summary
Source text: (§2) The intrinsic pathway of thrombin generation may be assayed in a thrombin generation assay by including FXIa and phospholipids. In such an assay, which is similar to an activated partial thromboplastin time (aPTT) test, thrombin generation is solely directed through the intrinsic pathway, and is FVIII dependent. A suitable assay is the Defined Intrinsic Thrombin Generation Assay described below. Alternatively, by employing low concentrations of TF and phospholipids instead of FXIa and phospholipids, thrombin is generated by both the extrinsic (tissue factor) and the intrinsic pathways. This form of the thrombin generation assay is the more physiologic one, as both thrombin generation pathways are involved; it is partially FVIII dependent. A suitable assay is the Defined Dual-Pathway Thrombin Generation Assay.
The Defined Intrinsic Thrombin Generation Assay is performed as follows. FVIII activity of human plasma is inhibited by incubating (2 hours, 37° C.) 40 μl of human normal plasma with 10 μl heat inactivated anti-human FVIII plasma raised in goat (600 BU/ml, 6 hours incubated at 56° C.). […] Instead of FVIII-inhibited plasma, FVIII inhibitor patient plasma or several depleted plasmas can be used. The micro-plate is immediately put into a GENios Plus (Tecan) or Safire 2 (Tecan) fluorescence reader and the fluorescence signal (ex 340 nm/em 440 nm) is followed kinetically by reading the plate every 21 seconds.
For calculation of activity equivalent units experiments are performed with dilutions of Factor Eight Inhibitor Bypassing Agent (FEIBA, Baxter AG), Immunate (human FVIII, purified plasma derived) reference standard (Baxter AG) or Recombinate standard (human FVIII, purified recombinant, Baxter AG). A linear fit of the logarithm of FEIBA (FVIII) concentration plotted against thrombin generation time at peak thrombin results in a standard curve. With this curve FEIBA (FVIII) equivalent activity is calculated for a defined peptide concentration. […] Thus, where a concentration of 100 μM is given, the actual concentration in the final assay volume in 40 μM.
Compounds were screened using the “Defined intrinsic thrombin generation assay” in which thrombin generation was quantified in vitro in FVIII-inhibited human plasma in the presence of Factor XIa and phospholipid vesicles. Further compounds were screened in the above assay, and in the “Defined dual-pathway thrombin generation assay” using tissue factor and phospholipids instead of Factor XIa and phospholipids, as described in the specific description.
Various concentrations of each peptide were tested in the defined intrinsic thrombin generation assay using human FVIII inhibited plasma.

FVIII inhibited plasma = test: Defined Dual-Pathway Thrombin Generation Assay (DDPTGA, reagent C high), FVIII inhibited plasma; assay type: biochemical, human; conditions: for Peak IIa FEIBA EU / Peak IIa FVIIa EU / Peak Time FEIBA EU / Peak Time FVIIa EU: FVIII inhibited plasma; for Activity in the Defined Dual-Pathway Thrombin Generation Assay: summary, FVIII inhibited or deficient plasma
Source text: as §2, §1
(§3) Tissue factor dependency of peak thrombin generation and thrombin peak time was characterised in a composition containing a fixed concentration of phospholipid (namely 3.2 μM). Phospholipid dependency was characterised in a composition containing a fixed concentration of tissue factor (namely 7.2 μM). Peak time (time to peak thrombin generation) was dependent on the concentration of phospholipid or tissue factor. The final version of this assay is as described in the specific description, in which 10 μl reagent C high containing (32 μM phospholipid and 71.6 μM tissue factor) is used in a total volume of 100 μl.
(§4) Further studies were conducted using 3.2 μM phospholipid and 7.2 μM tissue factor in FVIII deficient or inhibited plasma, to characterise the effect on peak thrombin generation and thrombin peak time of various coagulation factor preparations. These studies provided a basis from which to compare the efficacy of the compounds in the assay. Briefly, rFVIII (Recombinate® FVIII from Baxter) was tested at 0, 5, 10, 20, 40 and 80 mU/ml in FVIII deficient plasma. FEIBA was tested at 0, 8, 16, 31, 63 and 125 mU/ml in FVIII inhibited plasma. FVIIa was tested at 0, 0.1, 0.4, 1.6, 6.3 and 25 nM in FVIII inhibited plasma. […] Peak thrombin increased and both the lag time and the thrombin peak time decrease.

FVIII deficient plasma = test: Defined Dual-Pathway Thrombin Generation Assay (DDPTGA, reagent C high), FVIII deficient plasma; assay type: biochemical, human; conditions: FVIII deficient plasma
Source text: as §2, §1, §3, §4

physchem = conditions: pH 7.4
in vitro [3] = conditions: mouse, pH 7.4
in vitro [4] = conditions: human, pH 7.4
HERG channel = HERG channel (Homo sapiens, UniProt Q12809); test: HERG inhibition, patch clamp assay
HERG channel, sequence (Q12809 whole entry): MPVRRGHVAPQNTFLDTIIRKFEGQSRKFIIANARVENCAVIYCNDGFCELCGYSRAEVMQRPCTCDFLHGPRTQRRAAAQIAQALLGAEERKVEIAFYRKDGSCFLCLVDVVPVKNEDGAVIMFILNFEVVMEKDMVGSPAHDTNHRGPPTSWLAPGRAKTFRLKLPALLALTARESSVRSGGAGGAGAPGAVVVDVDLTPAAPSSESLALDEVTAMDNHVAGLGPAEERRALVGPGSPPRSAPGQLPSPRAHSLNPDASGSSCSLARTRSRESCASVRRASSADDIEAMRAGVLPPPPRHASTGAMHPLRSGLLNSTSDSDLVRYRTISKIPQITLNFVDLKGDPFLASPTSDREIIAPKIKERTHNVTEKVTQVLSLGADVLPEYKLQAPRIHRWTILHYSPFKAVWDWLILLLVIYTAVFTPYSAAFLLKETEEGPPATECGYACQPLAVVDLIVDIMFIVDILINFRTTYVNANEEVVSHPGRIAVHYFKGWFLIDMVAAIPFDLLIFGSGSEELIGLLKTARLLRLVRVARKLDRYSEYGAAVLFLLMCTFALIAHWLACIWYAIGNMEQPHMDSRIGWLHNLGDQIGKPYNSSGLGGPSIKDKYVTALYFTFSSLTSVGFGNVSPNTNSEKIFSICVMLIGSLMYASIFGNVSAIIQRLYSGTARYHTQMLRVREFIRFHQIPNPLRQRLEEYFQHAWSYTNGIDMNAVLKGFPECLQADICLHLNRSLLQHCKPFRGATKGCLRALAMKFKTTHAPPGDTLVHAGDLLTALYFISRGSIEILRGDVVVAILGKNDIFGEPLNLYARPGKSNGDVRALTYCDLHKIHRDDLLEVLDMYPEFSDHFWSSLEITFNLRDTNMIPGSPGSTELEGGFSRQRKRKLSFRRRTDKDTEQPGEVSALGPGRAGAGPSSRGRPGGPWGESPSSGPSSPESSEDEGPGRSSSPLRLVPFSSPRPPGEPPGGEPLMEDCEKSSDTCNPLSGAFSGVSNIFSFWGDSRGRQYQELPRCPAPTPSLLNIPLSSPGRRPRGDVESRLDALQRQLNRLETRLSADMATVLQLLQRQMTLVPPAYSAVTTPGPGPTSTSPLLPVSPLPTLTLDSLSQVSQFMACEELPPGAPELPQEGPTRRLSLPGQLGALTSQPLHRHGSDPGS
Description: QT prolongation is assessed by HERG inhibition measured by patch-clamp techniques or Rb^+ efflux.
For rigorous characterization of HERG inhibition the patch clamp assay is applied (Cerep, France, Catalog ref. 900-36). […] The test compounds (10 mM stock solutions) were dissolved in dimethylsulfoxide (DMSO). The solutions at 1 μM contained 0.01% DMSO.

[5] = pH 7.4

Molecule	remaining at 0.5 h, 5 μM (Plasma stability) [%]	Thrombin peak time given as FEIBA equivalent activity ([2]; peptide 6.25 μM) [mU/ml]	Thrombin peak time given as FEIBA equivalent activity ([2]; peptide 12.5 μM) [mU/ml]	Thrombin peak time given as FEIBA equivalent activity ([2]; peptide 25 μM) [mU/ml]	Thrombin peak time given as FEIBA equivalent activity ([2]; peptide 50 μM) [mU/ml]	Thrombin peak time given as FEIBA equivalent activity ([2]; peptide 100 μM) [mU/ml]	Activity in the Defined Intrinsic Thrombin Generation Assay [2]	Peak IIa FEIBA EU (FVIII inhibited plasma; peptide 50 μM)	Peak IIa FVIIa EU (FVIII inhibited plasma; peptide 50 μM)	Peak Time FEIBA EU (FVIII inhibited plasma; peptide 50 μM)	Peak Time FVIIa EU (FVIII inhibited plasma; peptide 50 μM)	Activity in the Defined Dual-Pathway Thrombin Generation Assay (FVIII inhibited plasma)	Peak IIa FVIII EU (FVIII deficient plasma; peptide 50 μM)	Peak Time FVIII EU (FVIII deficient plasma; peptide 50 μM)	solubility kinetic (physchem) [µM]	Peak IIa FEIBA EU (FVIII inhibited plasma; peptide 100 μM)	Peak IIa FVIIa EU (FVIII inhibited plasma; peptide 100 μM)	Peak Time FEIBA EU (FVIII inhibited plasma; peptide 100 μM)	Peak Time FVIIa EU (FVIII inhibited plasma; peptide 100 μM)	Peak IIa FVIII EU (FVIII deficient plasma; peptide 100 μM)	also measured
CC[C@H](C)[C@H](NC(=O)[C@H](CCC(=O)O)NC(=O)[C@H](Cc1ccccc1)NC(=O)[C@H](Cc1ccc(O)cc1)NC(=O)[C@H](CC(C)C)NC(=O)[C@H](CC(=O)O)NC(=O)[C@H](Cc1c[nH]c2ccccc12)NC(=O)[C@@H](NC(=O)[C@H](CC(=O)O)NC(=O)[C@H](Cc1ccccc1)NC(=O)[C@H](CCC(=O)O)NC(=O)[C@H](CCSC)NC(=O)[C@H](CCCNC(=N)N)NC(=O)CCC(=O)NCCCOCCOCCOCCCN)C(C)C)C(=O)N[C@H](C(=O)N[C@@H](Cc1c[nH]c2ccccc12)C(=O)NCCCOCCOCCOCCCNC(=O)CCC(N)=O)C(C)C [Peptide A08] ({NH(CH2)3(OCH2CH2)2O(CH2)3NH-Suc}-RMEFDVWDLYFEIVW-X1)	70	563	656	764	958	1213	possess activity	BLS (BLS = below lowest standard.)	BLS (BLS = below lowest standard.)	9.1 mU/ml	0.4 nM	possess activity	BLS (BLS = below lowest standard.)	BLS (BLS = below lowest standard.)	11 (≈ 29.2 µg/mL)						Stimulation of thrombin generation [1]: +
CC[C@@H](C)[C@@H](NC(=O)[C@@H](CO)NC(C)=O)C(=O)N[C@H](CCSC)C(=O)N[C@H](Cc1ccccc1)C(=O)N[C@H](Cc1c[nH]c2ccccc12)C(=O)N[C@H](Cc1ccc(O)cc1)C(=O)N[C@H](CC(=O)O)C(=O)N[C@H](CCC(=O)O)C(=O)N[C@H](Cc1ccc(O)cc1)C(=O)N[C@H](CCC(=O)O)C(N)=O [Peptide B07, Ac-simfwydeye-NH2] (Ac-[dS][dI][dM][dF][dW][dY][dD][dE][dY][dE]-NH2)	89						possess activity								195 (≈ 278 µg/mL)						
CC(=O)CC(c1ccccc1)c1c(O)c2ccccc2oc1=O (stereo not shown) [Warfarin, warfarin]																					recovery at 6 h, 10 μM (in vitro [3]): 88.6%; recovery at 6 h, 10 μM (in vitro [4]): 99.3%
Ac-RMDFDVWDLYFEIVW-NH2 [Peptide A03]	92	477	639	762	1069	1396	possess activity	BLS (BLS = below lowest standard.)	BLS (BLS = below lowest standard.)	BLS (BLS = below lowest standard.)	BLS (BLS = below lowest standard.)	possess activity	BLS (BLS = below lowest standard.)	BLS (BLS = below lowest standard.)	110	BLS (BLS = below lowest standard.)	BLS (BLS = below lowest standard.)	BLS (BLS = below lowest standard.)	BLS (BLS = below lowest standard.)	BLS (BLS = below lowest standard.)	Peak Time FVIII EU (FVIII deficient plasma; peptide 100 μM): BLS (BLS = below lowest standard.)
Ac-VWDLYFEIVW-NH2 [Peptide A19]	99	383	495	525	663	826	possess activity								14						
PEG5000-RMKFDVWDLYFEIVW-NH2 [Peptide A16]								BLS (BLS = below lowest standard.)	BLS (BLS = below lowest standard.)	BLS (BLS = below lowest standard.)	BLS (BLS = below lowest standard.)		BLS (BLS = below lowest standard.)	BLS (BLS = below lowest standard.)		BLS (BLS = below lowest standard.)	BLS (BLS = below lowest standard.)	BLS (BLS = below lowest standard.)	BLS (BLS = below lowest standard.)	BLS (BLS = below lowest standard.)	Classification as HERG-channel blocker (potency ranking of Roche et al.) (HERG channel): low-potency; Aqueous solubility [5]: 220 µM; Solubility in PBS [5]: >200 µM; Peak Time FVIII EU (FVIII deficient plasma; peptide 100 μM): BLS (BLS = below lowest standard.)
PEG5000-WSLYFEIVWE [Peptide A17]								BLS (BLS = below lowest standard.)	BLS (BLS = below lowest standard.)	BLS (BLS = below lowest standard.)	BLS (BLS = below lowest standard.)	possess activity	BLS (BLS = below lowest standard.)	5.1 mU/ml		BLS (BLS = below lowest standard.)	BLS (BLS = below lowest standard.)	BLS (BLS = below lowest standard.)	0.1 nM	BLS (BLS = below lowest standard.)	Aqueous solubility [5]: 2000 µM; Peak Time FVIII EU (FVIII deficient plasma; peptide 100 μM): 5.9 mU/ml
